The text below walks through data of publication PMC3539823 (Journal of medicinal chemistry, 2012).

One data set addresses T1, GLS (Homo sapiens, UniProt O94925).
T1 sequence (O94925 124-669 limits assumed): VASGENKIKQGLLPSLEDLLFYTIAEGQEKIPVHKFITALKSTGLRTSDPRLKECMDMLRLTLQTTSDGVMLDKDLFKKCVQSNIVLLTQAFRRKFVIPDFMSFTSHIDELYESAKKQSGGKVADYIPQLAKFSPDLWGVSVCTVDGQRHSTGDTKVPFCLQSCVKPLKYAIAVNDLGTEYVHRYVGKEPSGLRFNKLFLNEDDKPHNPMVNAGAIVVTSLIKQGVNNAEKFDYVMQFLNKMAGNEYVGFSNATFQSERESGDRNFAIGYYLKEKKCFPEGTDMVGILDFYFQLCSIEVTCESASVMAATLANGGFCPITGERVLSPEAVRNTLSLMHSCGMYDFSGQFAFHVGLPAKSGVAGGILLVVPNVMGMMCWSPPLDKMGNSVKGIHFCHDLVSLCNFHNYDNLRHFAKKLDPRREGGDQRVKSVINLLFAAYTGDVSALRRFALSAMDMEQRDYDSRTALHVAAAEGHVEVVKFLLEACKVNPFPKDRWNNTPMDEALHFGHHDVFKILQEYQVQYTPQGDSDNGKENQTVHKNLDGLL
The following applies: previously reported; cited from earlier work.

The conditions of data set [1]: mouse liver microsomes, phase I. Background: Microsomes from liver hold many membrane-bound enzymes, among them those of drug oxidation.
In data set [2] the test system is P493 human lymphoma B cells. As to the kind of experiment: P493 cell proliferation assay. It is filed as cell-based. The following applies: P493-6, read-out: IC50 (growth of P493 cells).

With `Nc1nnc(CCSCCc2nnc(N)s2)s1` [Compound 5, Bis-[2-(5-Amino-[1,3,4]thiadiazol-2-yl)-ethylsulfide]], the “fold increase in IC50 value from 3 to 5” value on GLS is recorded as 50 fold.
In the case of `Nc1nnc(CCCCc2nnc(NC(=O)Cc3ccccc3)s2)s1` [Compound 11b, N-(5-(4-(5-amino-1,3,4-thiadiazol-2-yl)butyl)-1,3,4-thiadiazol-2-yl)-2-phenylacetamide], the “stability against microsomes in the presence of NADPH” value in data set [1] was “completely stable”.
A word on the IC50: it is the concentration at which inhibition is half-maximal. In the case of `O=C(CCCCc1nnc(NC(=O)Cc2ccccc2)s1)NCCN1CCCC1` [Compound 29a, 5-(5-(2-phenylacetamido)-1,3,4-thiadiazol-2-yl)-N-(2-(pyrrolidin-1-yl)ethyl)pentanamide], the “stability against microsomes in the presence of NADPH” value in data set [1] is “completely stable”. The concentration for half-maximal inhibition (IC50) in data set [2] is around 40 µM.
